Experimental data: patent US12559492B2, “BRAF degraders” (C4 Therapeutics, Inc., priority 2020, dated 2026)

Target: BRAF^V600E protein (Homo sapiens, UniProt P15056, V600E)
Experiment: HiBiT cellular BRAF V600E degradation assay
Assay type: cell-based
Details: 24 h incubation; for DC50: A375.10 cells (HiBiT tag knocked in at N-terminal of BRAF V600E), concentration at which 50% of total cellular BRAF V600E is degraded; for Emax: A375.10 cells, Emax = amount of residual protein remaining in the cell after compound treatment, read-out: HiBit 24 h Emax

BRAF^V600E protein, sequence (P15056 whole entry V600E): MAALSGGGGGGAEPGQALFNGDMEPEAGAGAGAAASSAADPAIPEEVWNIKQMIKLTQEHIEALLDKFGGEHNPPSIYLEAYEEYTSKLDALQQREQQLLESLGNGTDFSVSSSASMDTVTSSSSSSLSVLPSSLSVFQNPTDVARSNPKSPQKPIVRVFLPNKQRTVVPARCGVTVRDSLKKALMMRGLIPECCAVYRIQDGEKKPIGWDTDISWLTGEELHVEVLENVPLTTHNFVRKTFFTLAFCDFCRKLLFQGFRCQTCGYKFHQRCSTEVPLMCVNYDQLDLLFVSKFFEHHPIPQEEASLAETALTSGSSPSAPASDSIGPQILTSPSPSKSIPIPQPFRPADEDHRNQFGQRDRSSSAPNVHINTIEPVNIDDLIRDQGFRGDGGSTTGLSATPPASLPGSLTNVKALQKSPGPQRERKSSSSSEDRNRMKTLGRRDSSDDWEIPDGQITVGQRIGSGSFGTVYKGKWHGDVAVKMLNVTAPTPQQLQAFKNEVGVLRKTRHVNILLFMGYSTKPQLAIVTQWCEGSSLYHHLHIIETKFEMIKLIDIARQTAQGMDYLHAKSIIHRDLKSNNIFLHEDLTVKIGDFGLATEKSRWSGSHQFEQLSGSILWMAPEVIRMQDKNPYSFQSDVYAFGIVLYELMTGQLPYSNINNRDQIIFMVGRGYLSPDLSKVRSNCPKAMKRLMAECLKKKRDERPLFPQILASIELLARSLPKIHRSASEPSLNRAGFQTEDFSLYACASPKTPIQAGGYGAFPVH

| Structure (SMILES) | DC50 | Emax |
| --- | --- | --- |
| CCN(C)S(=O)(=O)Nc1ccc(F)c(C(=O)c2c[nH]c3ncc(-c4cnc(N5CCN(C(=O)CC6(O)CCN(c7ccc(N8CCC(=O)NC8=O)cc7F)CC6)CC5)nc4)cc23)c1F [Example 167, 5-[2-[4-[2-[1-[4-(2,4-dioxohexahydropyrimidin-1-yl)-2-fluoro-phenyl]-4-hydroxy-4-piperidyl]acetyl]piperazin-1-yl]pyrimidin-5-yl]-3-[3-[[ethyl(methyl)sulfamoyl]amino]-2,6-difluoro-benzoyl]-1H-pyrrolo[2,3-b]pyridine] | 7.05 nM | 9.37% |
| CCN(C)S(=O)(=O)Nc1ccc(F)c(C(=O)c2c[nH]c3ncc(-c4ccc(N5CCN(C(=O)CC6(O)CCN(c7ccc(N8CCC(=O)NC8=O)cc7F)CC6)CC5)cc4)cc23)c1F [Example 169, 5-[4-[4-[2-[1-[4-(2,4-dioxohexahydropyrimidin-1-yl)-2-fluoro-phenyl]-4-hydroxy-4-piperidyl]acetyl]piperazin-1-yl]phenyl]-3-[3-[[ethyl(methyl)sulfamoyl]amino]-2,6-difluoro-benzoyl]-1H-pyrrolo[2,3-b]pyridine] | 2.82 nM | 7.34% |
| CCN(C)S(=O)(=O)Nc1ccc(F)c(C(=O)c2c[nH]c3ncc(-c4ccc(N5CCN(C(=O)CC6(O)CCN(c7ccc(NC8CCC(=O)NC8=O)cc7F)CC6)CC5)nc4)cc23)c1Cl (stereo not shown) [Example 170, 3-[2-chloro-3-[[ethyl(methyl)sulfamoyl]amino]-6-fluoro-benzoyl]-5-[6-[4-[2-[1-[4-[(2,6-dioxo-3-piperidyl)amino]-2-fluoro-phenyl]-4-hydroxy-4-piperidyl]acetyl]piperazin-1-yl]-3-pyridyl]-1H-pyrrolo[2,3-b]pyridine] | 4.59 nM | 10.5% |
| CCN(C)S(=O)(=O)Nc1ccc(F)c(C(=O)c2c[nH]c3ncc(-c4cnc(N5CCN(C(=O)CN6CCC(N7CCN(C8CCC(=O)NC8=O)C(=O)C7)C(F)(F)C6)CC5)nc4)cc23)c1F (stereo not shown) [Example 173, 5-[2-[4-[2-[4-[4-(2,6-dioxo-3-piperidyl)-3-oxo-piperazin-1-yl]-3,3-difluoro-1-piperidyl]acetyl]piperazin-1-yl]pyrimidin-5-yl]-3-[3-[[ethyl(methyl)sulfamoyl]amino]-2,6-difluoro-benzoyl]-1H-pyrrolo[2,3-b]pyridine] | 6.37 nM | 7.19% |
| CCN(C)S(=O)(=O)Nc1ccc(F)c(C(=O)c2c[nH]c3ncc(-c4ccc(N5CCN(C(=O)CC6(O)CCN(c7ccc(C8CCC(=O)NC8=O)cc7F)CC6)CC5)cc4)cc23)c1F (stereo not shown) [Example 175, 5-[4-[4-[2-[1-[4-(2,6-dioxo-3-piperidyl)-2-fluoro-phenyl]-4-hydroxy-4-piperidyl]acetyl]piperazin-1-yl]phenyl]-3-[3-[[ethyl(methyl)sulfamoyl]amino]-2,6-difluoro-benzoyl]-1H-pyrrolo[2,3-b]pyridine] | 7.12 nM | 9.59% |
| CCN(C)S(=O)(=O)Nc1ccc(F)c(C(=O)c2c[nH]c3ncc(-c4ccc(N5CCN(C(=O)CC6(O)CCN(c7ccc(N[C@@H]8CCC(=O)NC8=O)cc7F)CC6)CC5)cc4)cc23)c1F [Example 178, 5-[4-[4-[2-[1-[4-[[(3R)-2,6-dioxo-3-piperidyl]amino]-2-fluoro-phenyl]-4-hydroxy-4-piperidyl]acetyl]piperazin-1-yl]phenyl]-3-[3-[[ethyl(methyl)sulfamoyl]amino]-2,6-difluoro-benzoyl]-1H-pyrrolo[2,3-b]pyridine] | 2.71 nM | 9.65% |
| CCN(C)S(=O)(=O)Nc1ccc(F)c(C(=O)c2c[nH]c3ncc(-c4ccc(N5CCN(C(=O)CC6(O)CCN(c7ccc(NC8CCC(=O)NC8=O)cc7F)CC6)CC5)c(Cl)c4)cc23)c1F (stereo not shown) [Example 180, 5-[3-chloro-4-[4-[2-[1-[4-[(2,6-dioxo-3-piperidyl)amino]-2-fluoro-phenyl]-4-hydroxy-4-piperidyl]acetyl]piperazin-1-yl]phenyl]-3-[3-[[ethyl(methyl)sulfamoyl]amino]-2,6-difluoro-benzoyl]-1H-pyrrolo[2,3-b]pyridine] | 4.62 nM | 8.93% |
| CCN(C)S(=O)(=O)Nc1ccc(F)c(C(=O)c2c[nH]c3ncc(-c4ccn(C5CCN(C(=O)CC6(O)CCN(c7ccc(NC8CCC(=O)NC8=O)cc7F)CC6)CC5)c(=O)c4)cc23)c1F (stereo not shown) [Example 181, 5-[1-[1-[2-[1-[4-[(2,6-dioxo-3-piperidyl)amino]-2-fluoro-phenyl]-4-hydroxy-4-piperidyl]acetyl]-4-piperidyl]-2-oxo-4-pyridyl]-3-[3-[[ethyl(methyl)sulfamoyl]amino]-2,6-difluoro-benzoyl]-1H-pyrrolo[2,3-b]pyridine] | 11.5 nM | 13.5% |
| CCN(C)S(=O)(=O)Nc1ccc(F)c(C(=O)c2c[nH]c3ncc(-c4cnc(N5CCC(OCC6CCN(c7ccc(NC8CCC(=O)NC8=O)cc7F)CC6)CC5)nc4)cc23)c1F (stereo not shown) [Example 182, 5-[2-[4-[[1-[4-[(2,6-dioxo-3-piperidyl)amino]-2-fluoro-phenyl]-4-piperidyl]methoxy]-1-piperidyl]pyrimidin-5-yl]-3-[3-[[ethyl(methyl)sulfamoyl]amino]-2,6-difluoro-benzoyl]-1H-pyrrolo[2,3-b]pyridine] | 17.9 nM | 7.7% |

Further compounds by falling DC50, results first:

| DC50 | Emax | Structure (SMILES) |
| --- | --- | --- |
| 6.27 nM | 10.8% | CCN(C)S(=O)(=O)Nc1cccc(C(=O)c2c[nH]c3ncc(-c4cnc(N5CCN(C(=O)CC6(O)CCN(c7ccc(N8CCC(=O)NC8=O)cc7F)CC6)CC5)nc4)cc23)c1F [Example 165, 5-[2-[4-[2-[1-[4-(2,4-dioxohexahydropyrimidin-1-yl)-2-fluoro-phenyl]-4-hydroxy-4-piperidyl]acetyl]piperazin-1-yl]pyrimidin-5-yl]-3-[3-[[ethyl(methyl)sulfamoyl]amino]-2-fluoro-benzoyl]-1H-pyrrolo[2,3-b]pyridine] |
| 5.91 nM | 8.35% | CCN(C)S(=O)(=O)Nc1ccc(F)c(C(=O)c2c[nH]c3ncc(-c4ccc(N5CCN(C(=O)CC6(O)CCN(c7ccc(N[C@H]8CCC(=O)NC8=O)cc7F)CC6)CC5)cc4)cc23)c1F [Example 179, 5-[4-[4-[2-[1-[4-[[(3S)-2,6-dioxo-3-piperidyl]amino]-2-fluoro-phenyl]-4-hydroxy-4-piperidyl]acetyl]piperazin-1-yl]phenyl]-3-[3-[[ethyl(methyl)sulfamoyl]amino]-2,6-difluoro-benzoyl]-1H-pyrrolo[2,3-b]pyridine] |
| 5.87 nM | 7.61% | CCN(C)S(=O)(=O)Nc1ccc(F)c(C(=O)c2c[nH]c3ncc(-c4ccc(N5CCN(C(=O)CN6CCC(N7CCN(C8CCC(=O)NC8=O)C(=O)C7)C(F)(F)C6)CC5)nc4)cc23)c1F (stereo not shown) [Example 171, 5-[6-[4-[2-[4-[4-(2,6-dioxo-3-piperidyl)-3-oxo-piperazin-1-yl]-3,3-difluoro-1-piperidyl]acetyl]piperazin-1-yl]-3-pyridyl]-3-[3-[[ethyl(methyl)sulfamoyl]amino]-2,6-difluoro-benzoyl]-1H-pyrrolo[2,3-b]pyridine] |
| 5.84 nM | 9.54% | CCN(C)S(=O)(=O)Nc1ccc(F)c(C(=O)c2c[nH]c3ncc(-c4ccc(N5CCN(C(=O)CC6(O)CCN(c7ccc(N[C@H]8CCC(=O)NC8=O)cc7F)CC6)CC5)nc4)cc23)c1F [Example 176, 5-[6-[4-[2-[1-[4-[[(3S)-2,6-dioxo-3-piperidyl]amino]-2-fluoro-phenyl]-4-hydroxy-4-piperidyl]acetyl]piperazin-1-yl]-3-pyridyl]-3-[3-[[ethyl(methyl)sulfamoyl]amino]-2,6-difluoro-benzoyl]-1H-pyrrolo[2,3-b]pyridine] |
| 4.67 nM | 6.28% | CCN(C)S(=O)(=O)Nc1ccc(F)c(C(=O)c2c[nH]c3ncc(-c4ccc(N5CCN(C(=O)CN6CCC(N7CCN(C8CCC(=O)NC8=O)C(=O)C7)C(F)(F)C6)CC5)cc4)cc23)c1F (stereo not shown) [Example 172, 5-[4-[4-[2-[4-[4-(2,6-dioxo-3-piperidyl)-3-oxo-piperazin-1-yl]-3,3-difluoro-1-piperidyl]acetyl]piperazin-1-yl]phenyl]-3-[3-[[ethyl(methyl)sulfamoyl]amino]-2,6-difluoro-benzoyl]-1H-pyrrolo[2,3-b]pyridine] |
| 3.65 nM | 9.99% | CCN(C)S(=O)(=O)Nc1ccc(F)c(C(=O)c2c[nH]c3ncc(-c4ccc(N5CCN(C(=O)CC6(O)CCN(c7ccc(N[C@@H]8CCC(=O)NC8=O)cc7F)CC6)CC5)nc4)cc23)c1F [Example 177, 5-[6-[4-[2-[1-[4-[[(3R)-2,6-dioxo-3-piperidyl]amino]-2-fluoro-phenyl]-4-hydroxy-4-piperidyl]acetyl]piperazin-1-yl]-3-pyridyl]-3-[3-[[ethyl(methyl)sulfamoyl]amino]-2,6-difluoro-benzoyl]-1H-pyrrolo[2,3-b]pyridine] |
| 3 nM | 10.2% | CCN(C)S(=O)(=O)Nc1ccc(F)c(C(=O)c2c[nH]c3ncc(-c4ccc(N5CCN(C(=O)CC6(O)CCN(c7ccc(N8CCC(=O)NC8=O)cc7F)CC6)CC5)nc4)cc23)c1F [Example 168, 5-[6-[4-[2-[1-[4-(2,4-dioxohexahydropyrimidin-1-yl)-2-fluoro-phenyl]-4-hydroxy-4-piperidyl]acetyl]piperazin-1-yl]-3-pyridyl]-3-[3-[[ethyl(methyl)sulfamoyl]amino]-2,6-difluoro-benzoyl]-1H-pyrrolo[2,3-b]pyridine] |
| 2.39 nM | 9.44% | CCN(C)S(=O)(=O)Nc1ccc(F)c(C(=O)c2c[nH]c3ncc(-c4cnc(N5CCN(C(=O)CC6(O)CCN(c7ccc(N[C@@H]8CCC(=O)NC8=O)cc7F)CC6)CC5)nc4)cc23)c1F [Example 174, 5-[2-[4-[2-[1-[4-[[(3R)-2,6-dioxo-3-piperidyl]amino]-2-fluoro-phenyl]-4-hydroxy-4-piperidyl]acetyl]piperazin-1-yl]pyrimidin-5-yl]-3-[3-[[ethyl(methyl)sulfamoyl]amino]-2,6-difluoro-benzoyl]-1H-pyrrolo[2,3-b]pyridine] |
